Results on 40 molecules are retold here after US20210040062A1, “AZOLE-SUBSTITUTED PYRIDINE COMPOUND” (TAISHO PHARMACEUTICAL CO., LTD., priority 2016, published 2021).

Assay [1] deals with T1, human CYP4F2 (Homo sapiens, UniProt P78329).
T1 construct: host or cells: Escherichia coli (membrane fraction)
T1 sequence (P78329 5-520): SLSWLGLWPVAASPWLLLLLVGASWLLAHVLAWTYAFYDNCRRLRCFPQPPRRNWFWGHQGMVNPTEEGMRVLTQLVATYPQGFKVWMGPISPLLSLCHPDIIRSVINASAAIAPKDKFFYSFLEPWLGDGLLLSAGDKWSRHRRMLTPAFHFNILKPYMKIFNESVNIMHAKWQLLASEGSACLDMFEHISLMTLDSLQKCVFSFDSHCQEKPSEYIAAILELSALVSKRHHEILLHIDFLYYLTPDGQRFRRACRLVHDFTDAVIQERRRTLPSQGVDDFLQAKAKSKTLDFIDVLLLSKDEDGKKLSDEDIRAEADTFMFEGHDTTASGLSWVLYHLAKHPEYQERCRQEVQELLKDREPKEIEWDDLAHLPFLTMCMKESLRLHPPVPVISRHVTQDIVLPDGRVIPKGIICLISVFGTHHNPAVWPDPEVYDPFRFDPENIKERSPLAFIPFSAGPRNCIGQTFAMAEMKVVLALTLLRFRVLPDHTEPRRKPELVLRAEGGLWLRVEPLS
In words: CYP4F2 inhibition test (Test Example 1). It counts as biochemical. The settings on record: Escherichia coli membrane fraction expressing human CYP4F2, 2.5 μM luciferine derivative, room temperature 60 minutes, luminescence. As for the experimental part: (§1) (1) Inhibition Test for Each Compound of the Present Invention Against 20-HETE Producing Enzymes (CYP4F2 and CYP4A11)
(§2) In the CYP4F2 inhibition test, the reaction solution containing each compound [final concentration of 50 mM, KPO4 (pH 7.4), 2.5 μM, luciferine derivative and 1 mM NADPH] was added to an Escherichia coli membrane fraction (100 μg/mL, protein) in which human CYP4F2 had been expressed. In the CYP4A11 inhibition test, the reaction solution containing each compound [final concentration of 100 mM, Tris-HCl (pH 7.5), 60 μM, luciferine derivative, 1.3 mM NADP^+, 3.3 mM Glucose 6-Phosphate, 3.3 mM MgCl2 and 0.4 U/mL Glucose 6-Phosphate dehydrogenase] was added to an Escherichia coli membrane fraction (100 μg/mL, protein) in which human CYP4A11 had been expressed. Following this, the membrane fraction was left to stand at room temperature for 60 minutes to perform an enzymatic reaction. After the reaction, a luciferine detection reagent was added, and the luminescence value was measured using a plate reader.
(§3) A: Luminescence value with addition of compound
(§4) B: Luminescence value without addition of compound and enzyme
(§5) C: Luminescence value without addition of compound

Assay [2] deals with T2, human CYP4A11 (Homo sapiens, UniProt Q02928).
T2 construct: host or cells: Escherichia coli (membrane fraction)
T2 sequence (Q02928 5-519): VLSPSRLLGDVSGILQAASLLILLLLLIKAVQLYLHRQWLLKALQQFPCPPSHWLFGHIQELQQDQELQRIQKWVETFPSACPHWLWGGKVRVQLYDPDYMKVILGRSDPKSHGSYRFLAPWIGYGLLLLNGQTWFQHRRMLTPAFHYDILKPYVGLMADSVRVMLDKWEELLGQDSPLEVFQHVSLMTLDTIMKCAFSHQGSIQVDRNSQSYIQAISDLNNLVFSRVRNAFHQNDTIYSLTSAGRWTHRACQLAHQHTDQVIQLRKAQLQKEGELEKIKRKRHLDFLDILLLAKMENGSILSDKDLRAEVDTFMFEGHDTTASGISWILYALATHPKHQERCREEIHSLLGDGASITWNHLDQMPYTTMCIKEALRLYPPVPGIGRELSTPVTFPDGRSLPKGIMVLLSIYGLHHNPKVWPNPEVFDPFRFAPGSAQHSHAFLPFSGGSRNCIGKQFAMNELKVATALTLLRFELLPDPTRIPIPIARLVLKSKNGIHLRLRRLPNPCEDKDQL
In words: CYP4A11 inhibition test (Test Example 1). It counts as biochemical. As to conditions: Escherichia coli membrane fraction expressing human CYP4A11, 60 μM luciferine derivative, room temperature 60 minutes, luminescence. How it is done: as §1, §2, §3, §4, §5

Structures are written as SMILES. pIC50: −log10 of the molar value.

By pIC50 is commonly meant −log10 of the IC50, conventionally taken in molar units. `O=C(c1ccccc1)N1CCC[C@@H](COc2ccc(-c3ccn[nH]3)nc2)C1` [Example 3-5]: the pIC50 in assay [1] was 6.36; in assay [2] it was 6.57.
Taken in the same sequence, the figures for `O=C(C1CCOCC1)N1CCC[C@@H](COc2ccc(-c3ccn[nH]3)nc2)C1` [Example 3-9] were 5.89 and 5.70.
Taken in the same sequence, the figures for `O=C(N1CCC[C@@H](COc2ccc(-c3ccn[nH]3)nc2)C1)C(F)(F)C1(O)CCOCC1` [Example 3-10] were 6.37 and 6.22.
The matching figures for `O=C(N1CCC[C@@H](COc2ccc(-c3ccn[nH]3)nc2)C1)C(F)(F)C1(O)CCCC1` [Example 3-11]: 7.28 and 6.72.
For the molecule `O=C(CN1CCCS1(=O)=O)N1CCC[C@@H](COc2ccc(-c3ccn[nH]3)nc2)C1` [Example 3-12], the pIC50 in assay [1] was 5.59; in assay [2], 5.55.
Taken in the same sequence, the figures for `O=C(CC1CCS(=O)(=O)C1)N1CCC[C@@H](COc2ccc(-c3ccn[nH]3)nc2)C1` (some centres unmarked) [Example 3-13] were 6.55 and 5.82.
The matching figures for `CC(=O)NCC(=O)N1CCC[C@@H](COc2ccc(-c3ccn[nH]3)nc2)C1` [Example 3-15]: 5.15 and 5.92.
The matching figures for `O=C(NCC(=O)N1CCC[C@@H](COc2ccc(-c3ccn[nH]3)nc2)C1)OCc1ccccc1` [Example 3-17]: 7.77 and 7.11.
With `CC(C)(C)OC(=O)NCCC(=O)N1CCC[C@@H](COc2ccc(-c3ccn[nH]3)nc2)C1` [Example 3-18], the pIC50 is 7.74 in assay [1] and 7.30 in assay [2].
The matching figures for `NC(=O)CCC(=O)N1CCC[C@@H](COc2ccc(-c3ccn[nH]3)nc2)C1` [Example 3-19]: 5.62 and 6.00.
Take `O=C(CCC(=O)N1CCC[C@@H](COc2ccc(-c3ccn[nH]3)nc2)C1)N1CCOCC1` [Example 3-20]: the negative logarithm of the IC50 (pIC50) in assay [1] was 6.19; in assay [2], 5.48.
The matching figures for `NC(=O)NCCCC(=O)N1CCC[C@@H](COc2ccc(-c3ccn[nH]3)nc2)C1` [Example 3-21]: 6.14 and 6.10.
For the molecule `CC(=O)N1CCCC1C(=O)N1CCC[C@@H](COc2ccc(-c3ccn[nH]3)nc2)C1` (some centres unmarked) [Example 3-23], the negative logarithm of the IC50 (pIC50) in assay [1] was 5.33; in assay [2], 5.49.
In the case of `CC(=O)N1CCC(C(=O)N2CCC[C@@H](COc3ccc(-c4ccn[nH]4)nc3)C2)CC1` [Example 3-24], the pIC50 was 6.31 in assay [1] and 5.70 in assay [2].
Turning to `NC(=O)COc1ccc(C(=O)N2CCC[C@@H](COc3ccc(-c4ccn[nH]4)nc3)C2)cc1` [Example 3-25], the pIC50 in assay [1] was 6.96; in assay [2], 6.25.
The matching figures for `NC(=O)COc1ccccc1C(=O)N1CCC[C@@H](COc2ccc(-c3ccn[nH]3)nc2)C1` [Example 3-26]: 5.04 and 5.92.
The matching figures for `O=C(c1cc(CO)ccn1)N1CCC[C@@H](COc2ccc(-c3ccn[nH]3)nc2)C1` [Example 3-27]: 6.15 and 6.51.
The matching figures for `O=C(Cn1ccccc1=O)N1CCC[C@@H](COc2ccc(-c3ccn[nH]3)nc2)C1` [Example 3-28]: 5.49 and 5.62.
In the case of `O=C(COc1ccccc1)N1CCC[C@@H](COc2ccc(-c3ccn[nH]3)nc2)C1` [Example 3-29], the pIC50 was 7.30 in assay [1] and 7.10 in assay [2].
As to `O=C(CS(=O)(=O)c1ccccc1)N1CCC[C@@H](COc2ccc(-c3ccn[nH]3)nc2)C1` [Example 3-30], the pIC50 was 6.60 in assay [1] and 6.96 in assay [2].
Taken in the same sequence, the figures for `O=C(CCCOc1ccccc1)N1CCC[C@@H](COc2ccc(-c3ccn[nH]3)nc2)C1` [Example 3-31] were 8.31 and 7.37.
Taken in the same sequence, the figures for `O=C(CC1CCCCC1)N1CCC[C@@H](COc2ccc(-c3ccn[nH]3)nc2)C1` [Example 3-32] were 7.82 and 6.34.
With `O=C(CC1CCOCC1)N1CCC[C@@H](COc2ccc(-c3ccn[nH]3)nc2)C1` [Example 3-33], the results for the pIC50 in assay [1] and in assay [2] were 6.66 and 5.60, respectively.
The matching figures for `NC(=O)C1(C(=O)N2CCC[C@@H](COc3ccc(-c4ccn[nH]4)nc3)C2)CC1` [Example 3-34]: 4.35 and 6.11.
Taken in the same sequence, the figures for `CC(C)(O)CC(=O)N1CCC[C@@H](COc2ccc(-c3ccn[nH]3)nc2)C1` [Example 3-35] were 6.10 and 5.89.
Taken in the same sequence, the figures for `O=C(CCS(=O)(=O)C(F)(F)F)N1CCC[C@@H](COc2ccc(-c3ccn[nH]3)nc2)C1` [Example 3-36] were 7.05 and 6.15.
Regarding `O=C(CCC1CCCCC1)N1CCC[C@@H](COc2ccc(-c3ccn[nH]3)nc2)C1` [Example 3-37], the pIC50 in assay [1] is 8.08; in assay [2] it was 6.54.
On to `O=C(CCN1CCCS1(=O)=O)N1CCC[C@@H](COc2ccc(-c3ccn[nH]3)nc2)C1` [Example 3-38], for which the pIC50 in assay [1] is 6.42; in assay [2], 5.74.
The matching figures for `O=C(CN1CCCOC1=O)N1CCC[C@@H](COc2ccc(-c3ccn[nH]3)nc2)C1` [Example 3-39]: 5.46 and 5.47.
For `CN(CC(=O)N1CCC[C@@H](COc2ccc(-c3ccn[nH]3)nc2)C1)C(=O)OC(C)(C)C` [Example 3-40], the pIC50 in assay [1] was 6.43; in assay [2], 6.03.
With `CCCCNC(=O)NCC(=O)N1CCC[C@@H](COc2ccc(-c3ccn[nH]3)nc2)C1` [Example 3-41], the values for the pIC50 in assay [1] and in assay [2] were 6.74 and 6.64, respectively.
The matching figures for `CC(=O)N(C)CCC(=O)N1CCC[C@@H](COc2ccc(-c3ccn[nH]3)nc2)C1` [Example 3-42]: 6.05 and 5.74.
The matching figures for `CC(=O)NCCCC(=O)N1CCC[C@@H](COc2ccc(-c3ccn[nH]3)nc2)C1` [Example 3-43]: 6.24 and 6.14.
Taken in the same sequence, the figures for `CC(C)(C)OC(=O)NCCCC(=O)N1CCC[C@@H](COc2ccc(-c3ccn[nH]3)nc2)C1` [Example 3-44] were 7.74 and 7.00.
Turning to `O=C(NCCC(=O)N1CCC[C@@H](COc2ccc(-c3ccn[nH]3)nc2)C1)c1ccccc1` [Example 3-45], the results for the pIC50 in assay [1] and in assay [2] were 7.62 and 7.15, respectively.
For the molecule `CC(C)(C)OC(=O)N1CC(C(=O)N2CCC[C@@H](COc3ccc(-c4ccn[nH]4)nc3)C2)C1` [Example 3-46], the pIC50 in assay [1] was 7.64; in assay [2] it was 6.54.
Consider `CC(C)(C)OC(=O)N1CC[C@H]1C(=O)N1CCC[C@@H](COc2ccc(-c3ccn[nH]3)nc2)C1` [Example 3-47], for which the pIC50 in assay [1] is 6.28; in assay [2], 5.68.
Consider `CC(=O)N1CCC(CCOc2ccc(-c3ccn[nH]3)nc2)CC1` [Example 4-1, 1-[4-(2-{[6-(1H-Pyrazol-5-yl)pyridin-3-yl]oxy}ethyl)piperidin-1-yl]ethan-1-one], for which the results for the pIC50 in assay [1] and in assay [2] were 6.92 and 6.26, respectively.
The matching figures for `CC(C)C(=O)N1CCC(CCOc2ccc(-c3ccn[nH]3)nc2)CC1` [Example 4-2]: 7.30 and 6.42.
For the molecule `O=C(c1ccccc1)N1CCC(CCOc2ccc(-c3ccn[nH]3)nc2)CC1` [Example 4-3], the results for the negative-log IC50 (pIC50) in assay [1] and in assay [2] were 6.68 and 6.57, respectively.
